The source made the active and inactive calls. The rule behind the calls is not given here.
Columns and labels:
[1] = Cardiotoxicity in human iPSC-derived cardiomyocyte assessed as effect on intracellular cardiomyocyte contraction at 20 uM measured for 2 mins by FLIPR analysis; format: toxicity, cell-based; conditions: cardiac muscle cell
[2] = biological target: Sphingosine 1-phosphate receptor 3 (Homo sapiens, UniProt Q99500); test: Agonist activity at S1P3 (unknown origin) expressed in PathHunter CHO-K1 EDG1 beta-arrestin cells assessed as beta-arrestin recruitment; format: functional, cell-based
Sphingosine 1-phosphate receptor 3, sequence (Q99500 whole entry): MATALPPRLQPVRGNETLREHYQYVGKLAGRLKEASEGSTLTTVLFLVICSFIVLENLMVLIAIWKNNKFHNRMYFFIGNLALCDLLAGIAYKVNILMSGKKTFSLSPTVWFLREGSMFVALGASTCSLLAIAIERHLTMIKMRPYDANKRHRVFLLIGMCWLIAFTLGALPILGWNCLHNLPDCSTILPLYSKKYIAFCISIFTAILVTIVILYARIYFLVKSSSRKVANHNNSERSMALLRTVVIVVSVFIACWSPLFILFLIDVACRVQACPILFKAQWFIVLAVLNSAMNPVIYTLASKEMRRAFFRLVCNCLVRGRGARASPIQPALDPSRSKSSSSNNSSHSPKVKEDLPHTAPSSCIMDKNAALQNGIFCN

[3] = biological target: T1, Sphingosine 1-phosphate receptor 4 (Homo sapiens, UniProt O95977); test: Agonist activity at S1P4 (unknown origin) expressed in PathHunter CHO-K1 EDG1 beta-arrestin cells assessed as beta-arrestin recruitment; format: functional, cell-based
T1 sequence (O95977 whole entry): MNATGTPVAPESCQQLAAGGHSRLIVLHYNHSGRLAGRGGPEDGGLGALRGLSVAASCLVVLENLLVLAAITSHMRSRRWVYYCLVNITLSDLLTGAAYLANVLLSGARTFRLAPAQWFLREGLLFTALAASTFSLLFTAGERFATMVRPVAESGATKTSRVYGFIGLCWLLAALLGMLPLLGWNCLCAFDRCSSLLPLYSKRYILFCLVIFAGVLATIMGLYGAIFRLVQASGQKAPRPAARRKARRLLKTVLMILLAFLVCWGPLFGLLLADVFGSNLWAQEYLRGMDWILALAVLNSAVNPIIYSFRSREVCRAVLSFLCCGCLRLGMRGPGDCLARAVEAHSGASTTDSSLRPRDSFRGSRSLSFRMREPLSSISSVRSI

[4] = biological target: T1, Sphingosine 1-phosphate receptor 4; test: Agonist activity at S1P4 (unknown origin) expressed in CHO cells assessed as Ca2+ activation; format: functional, cell-based
[5] = AUClast in ICR mouse at 1 mg/kg, iv measured at 0.25 to 12 hrs by LC-MS/MS analysis; format: ADME, organism-based; parameters: time lower 0.25 hrs, dose 1 mg/kg, time upper 12 hrs, route iv; conditions: in vivo
CYP2C9 = CYP2C9 (Homo sapiens, UniProt P11712); test: Inhibition of CYP2C9 in human liver microsomes using diclofenac as substrate assessed as residual activity at 10 uM preincubated for 5 mins followed by substrate addition and measured after 15 mins in presence of NADPH by LC-MS/MS analysis; format: ADME, Microsome; conditions: probe diclofenac, time 20 min, read-out: Activity
CYP2C9, sequence (P11712 whole entry): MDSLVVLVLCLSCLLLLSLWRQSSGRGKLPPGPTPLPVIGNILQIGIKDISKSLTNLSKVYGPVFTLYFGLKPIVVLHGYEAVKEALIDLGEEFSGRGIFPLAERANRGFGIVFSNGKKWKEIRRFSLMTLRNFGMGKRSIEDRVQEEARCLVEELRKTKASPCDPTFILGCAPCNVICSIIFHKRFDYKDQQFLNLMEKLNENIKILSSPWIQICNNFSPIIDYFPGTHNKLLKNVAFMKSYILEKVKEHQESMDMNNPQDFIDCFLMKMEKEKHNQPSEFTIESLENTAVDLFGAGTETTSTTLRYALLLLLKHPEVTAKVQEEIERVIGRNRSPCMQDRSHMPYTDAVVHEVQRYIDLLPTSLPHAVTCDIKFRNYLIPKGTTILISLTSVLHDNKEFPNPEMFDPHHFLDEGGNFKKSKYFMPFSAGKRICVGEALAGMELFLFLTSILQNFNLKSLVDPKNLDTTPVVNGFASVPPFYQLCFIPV

[6] = Microsomal stability in mouse liver microsomes assessed as parent compound remaining preincubated for 5 mins followed by NADPH addition measured after 30 mins by LC-MS/MS analysis; format: ADME, Microsome; conditions: time 35 min, read-out: Stability
CYP1A2 = biological target: T2, CYP1A2 (Homo sapiens, UniProt P05177); test: Inhibition of CYP1A2 in human liver microsomes using phenacetin as substrate assessed as residual activity at 10 uM preincubated for 5 mins followed by substrate addition and measured after 15 mins in presence of NADPH by LC-MS/MS analysis; format: ADME, Microsome; conditions: probe phenacetin, time 20 min, read-out: Activity
T2 sequence (P05177 whole entry): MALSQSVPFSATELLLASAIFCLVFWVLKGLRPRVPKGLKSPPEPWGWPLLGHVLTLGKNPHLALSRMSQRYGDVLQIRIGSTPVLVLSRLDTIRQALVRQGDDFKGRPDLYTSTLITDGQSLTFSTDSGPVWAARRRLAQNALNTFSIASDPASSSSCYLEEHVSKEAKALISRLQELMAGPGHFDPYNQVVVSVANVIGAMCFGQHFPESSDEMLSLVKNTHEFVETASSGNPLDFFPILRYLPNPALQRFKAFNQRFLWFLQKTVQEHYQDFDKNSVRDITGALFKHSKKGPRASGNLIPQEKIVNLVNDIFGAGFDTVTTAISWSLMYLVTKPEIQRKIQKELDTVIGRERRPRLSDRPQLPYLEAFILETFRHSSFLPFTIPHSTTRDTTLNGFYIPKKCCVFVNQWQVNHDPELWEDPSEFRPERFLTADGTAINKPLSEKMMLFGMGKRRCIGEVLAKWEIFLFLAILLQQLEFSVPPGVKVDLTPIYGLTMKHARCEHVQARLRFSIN

[7] = Half life in ICR mouse at 1 mg/kg, iv measured at 0.25 to 12 hrs by LC-MS/MS analysis; format: ADME, organism-based; conditions: in vivo, time 0.25-12 hrs
[8] = Cmax in ICR mouse at 10 mg/kg, po measured at 0.25 to 12 hrs by LC-MS/MS analysis; format: ADME, organism-based; parameters: time upper 12 hrs, dose 10 mg/kg, time lower 0.25 hrs, route po; conditions: in vivo
[9] = Microsomal stability in human liver microsomes assessed as parent compound remaining preincubated for 5 mins followed by NADPH addition measured after 30 mins by LC-MS/MS analysis; format: ADME, Microsome; conditions: time 35 min, read-out: Stability
[10] = Observed volume of distribution at steady state in ICR mouse at 1 mg/kg, iv measured at 0.25 to 12 hrs by LC-MS/MS analysis; format: ADME, organism-based; conditions: in vivo, time 0.25-12 hrs, read-out: Vdss
[11] = biological target: T3, Sphingosine 1-phosphate receptor 1 (Homo sapiens, UniProt P21453); test: Agonist activity at S1P1 (unknown origin) expressed in PathHunter CHO-K1 EDG1 beta-arrestin cells assessed as beta-arrestin2 recruitment incubated for 90 mins by chemiluminescence based assay; format: functional, cell-based
T3 sequence (P21453 whole entry): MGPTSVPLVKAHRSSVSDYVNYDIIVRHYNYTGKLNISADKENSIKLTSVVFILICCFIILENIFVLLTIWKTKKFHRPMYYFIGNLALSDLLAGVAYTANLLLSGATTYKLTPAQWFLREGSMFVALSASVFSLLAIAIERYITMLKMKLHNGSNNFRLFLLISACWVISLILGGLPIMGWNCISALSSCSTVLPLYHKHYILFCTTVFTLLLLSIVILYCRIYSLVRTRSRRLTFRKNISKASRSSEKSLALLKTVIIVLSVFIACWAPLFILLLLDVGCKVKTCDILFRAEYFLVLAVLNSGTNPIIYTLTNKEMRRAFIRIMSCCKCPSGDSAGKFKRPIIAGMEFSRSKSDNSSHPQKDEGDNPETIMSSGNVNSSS

[12] = Observed MRT (infinitive) in ICR mouse at 1 mg/kg, iv measured at 0.25 to 12 hrs by LC-MS/MS analysis; format: ADME, organism-based; conditions: in vivo, time 0.25-12 hrs
CYP3A4 = CYP3A4 (Homo sapiens, UniProt P08684); test: Inhibition of CYP3A4 in human liver microsomes using midazolam as substrate assessed as residual activity at 10 uM preincubated for 5 mins followed by substrate addition and measured after 15 mins in presence of NADPH by LC-MS/MS analysis; format: ADME, Microsome; conditions: probe midazolam, time 20 min, read-out: Activity
CYP3A4, sequence (P08684 whole entry): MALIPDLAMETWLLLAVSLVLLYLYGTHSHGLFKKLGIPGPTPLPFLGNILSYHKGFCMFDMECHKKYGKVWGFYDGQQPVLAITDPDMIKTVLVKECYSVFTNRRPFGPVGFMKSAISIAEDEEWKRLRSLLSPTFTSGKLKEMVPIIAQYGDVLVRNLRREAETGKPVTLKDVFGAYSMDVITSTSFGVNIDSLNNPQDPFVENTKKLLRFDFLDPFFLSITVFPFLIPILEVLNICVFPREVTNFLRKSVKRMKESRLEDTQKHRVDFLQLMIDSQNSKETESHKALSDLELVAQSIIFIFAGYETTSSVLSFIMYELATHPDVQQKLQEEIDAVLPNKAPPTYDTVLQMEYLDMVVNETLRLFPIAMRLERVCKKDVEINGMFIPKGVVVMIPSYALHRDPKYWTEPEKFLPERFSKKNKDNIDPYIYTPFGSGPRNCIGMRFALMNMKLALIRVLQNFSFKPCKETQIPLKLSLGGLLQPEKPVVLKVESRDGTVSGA

[13] = Tmax in ICR mouse at 10 mg/kg, po measured at 0.25 to 12 hrs by LC-MS/MS analysis; format: ADME, organism-based; conditions: in vivo, time 0.25-12 hrs
[14] = biological target: T3, Sphingosine 1-phosphate receptor 1; test: Agonist activity at S1P1 (unknown origin) expressed in human HEK293/Galpha15 cells assessed as Ca2+ activation measured for 2 hrs by FLIPR analysis; format: functional, cell-based
[15] = Observed clearance in ICR mouse at 1 mg/kg, iv measured at 0.25 to 12 hrs by LC-MS/MS analysis; format: ADME, organism-based; conditions: in vivo, time 0.25-12 hrs
[16] = AUClast in ICR mouse at 10 mg/kg, po measured at 0.25 to 12 hrs by LC-MS/MS analysis; format: ADME, organism-based; parameters: time 0.25-12 hrs, dose 10 mg/kg, route po; conditions: in vivo
Mus musculus [17] = test: In vivo agonist activity at S1P1 in mouse assessed as reduction in peripheral lymphocyte count at 10 mg/kg, po measured at 3 hrs; format: functional, organism-based
[18] = Oral bioavailability in ICR mouse at 10 mg/kg measured at 0.25 to 12 hrs by LC-MS/MS analysis; format: ADME, organism-based; conditions: in vivo, time 0.25-12 hrs
[19] = biological target: T3, Sphingosine 1-phosphate receptor 1; test: Agonist activity at S1P1 (unknown origin) expressed in PathHunter CHO-K1 EDG1 beta-arrestin cells assessed as beta-arrestin2 recruitment at 1 uM incubated for 90 mins by chemiluminescence based assay relative to control; format: functional, cell-based; conditions: filed as agonist
[20] = Microsomal stability in rat liver microsomes assessed as parent compound remaining preincubated for 5 mins followed by NADPH addition measured after 30 mins by LC-MS/MS analysis; format: ADME, Microsome; conditions: time 35 min, read-out: Stability
[21] = Half life in ICR mouse at 10 mg/kg, po measured at 0.25 to 12 hrs by LC-MS/MS analysis; format: ADME, organism-based; conditions: in vivo, time 0.25-12 hrs
CYP2D6 = CYP2D6 (Homo sapiens, UniProt P10635); test: Inhibition of CYP2D6 in human liver microsomes using dextromethorphan as substrate assessed as residual activity at 10 uM preincubated for 5 mins followed by substrate addition and measured after 15 mins in presence of NADPH by LC-MS/MS analysis; format: ADME, Microsome; conditions: probe dextromethorphan, time 20 min, read-out: Activity
CYP2D6, sequence (P10635 whole entry): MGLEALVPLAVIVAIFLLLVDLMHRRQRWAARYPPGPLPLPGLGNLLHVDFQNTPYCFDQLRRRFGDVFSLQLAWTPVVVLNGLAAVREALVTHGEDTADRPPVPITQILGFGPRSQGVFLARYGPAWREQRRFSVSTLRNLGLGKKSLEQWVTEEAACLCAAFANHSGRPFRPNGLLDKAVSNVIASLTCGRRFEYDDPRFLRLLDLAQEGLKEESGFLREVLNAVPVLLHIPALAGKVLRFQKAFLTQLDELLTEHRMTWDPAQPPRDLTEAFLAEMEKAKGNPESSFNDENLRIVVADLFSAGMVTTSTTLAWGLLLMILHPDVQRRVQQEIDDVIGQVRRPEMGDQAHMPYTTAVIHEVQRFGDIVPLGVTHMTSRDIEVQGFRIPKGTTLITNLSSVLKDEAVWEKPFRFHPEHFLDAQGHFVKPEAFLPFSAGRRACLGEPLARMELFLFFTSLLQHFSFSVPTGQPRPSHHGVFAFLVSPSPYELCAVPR

[22] = Observed MRT (infinitive) in ICR mouse at 10 mg/kg, po measured at 0.25 to 12 hrs by LC-MS/MS analysis; format: ADME, organism-based; conditions: in vivo, time 0.25-12 hrs
[23] = biological target: T3, Sphingosine 1-phosphate receptor 1; test: Agonist activity at S1P1 (unknown origin) expressed in human HEK293/Galpha15 cells assessed as Ca2+ activation at 1 uM measured for 2 hrs by FLIPR analysis relative to control; format: functional, cell-based; conditions: filed as agonist
Mus musculus [24] = test: In vivo agonist activity at S1P1 in mouse assessed as reduction in peripheral lymphocyte count at 10 mg/kg, po measured at 6 hrs; format: functional, organism-based
[25] = biological target: Sphingosine 1-phosphate receptor 2 (Homo sapiens, UniProt O95136); test: Agonist activity at S1P2 (unknown origin) expressed in PathHunter CHO-K1 EDG1 beta-arrestin cells assessed as beta-arrestin recruitment; format: functional, cell-based
Sphingosine 1-phosphate receptor 2, sequence (O95136 whole entry): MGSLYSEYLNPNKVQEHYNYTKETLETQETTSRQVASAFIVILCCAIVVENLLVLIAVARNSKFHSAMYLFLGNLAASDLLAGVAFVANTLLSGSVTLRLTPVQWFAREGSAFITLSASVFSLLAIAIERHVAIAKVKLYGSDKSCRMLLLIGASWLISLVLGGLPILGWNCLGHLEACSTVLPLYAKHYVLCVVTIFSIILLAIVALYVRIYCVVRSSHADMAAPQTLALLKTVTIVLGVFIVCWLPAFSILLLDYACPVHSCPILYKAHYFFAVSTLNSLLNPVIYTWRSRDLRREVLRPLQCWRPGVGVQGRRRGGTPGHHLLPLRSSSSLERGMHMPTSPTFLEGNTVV

[26] = Microsomal stability in mouse liver microsomes assessed as parent compound remaining preincubated for 5 mins followed by NADPH addition measured after 60 mins by LC-MS/MS analysis; format: ADME, Microsome; conditions: time 65 min, read-out: Stability
[27] = Cardiotoxicity in human iPSC-derived cardiomyocyte assessed as effect on intracellular cardiomyocyte contraction at 10 uM measured for 2 mins by FLIPR analysis; format: toxicity, cell-based; conditions: cardiac muscle cell
[28] = Toxicity in C57BL/6 mouse assessed as body weight loss at 10 mg/kg, po administered once a day for 23 days; format: organism-based; conditions: in vivo, 552 h, time 23 day
Mus musculus [29] = test: In vivo agonist activity at S1P1 in mouse assessed as reduction in peripheral lymphocyte count at 1 to 3 mg/kg, po measured at 3 hrs; format: functional, organism-based; conditions: dose 1-3 mg/kg
Mus musculus [30] = test: In vivo agonist activity at S1P1 in po dosed mouse assessed as reduction in peripheral lymphocyte count at 1 to 10 mg/kg, po measured after 24 hrs; format: functional, organism-based; conditions: dose 1-10 mg/kg
[31] = biological target: Sphingosine 1-phosphate receptor 5 (Homo sapiens, UniProt Q9H228); test: Agonist activity at S1P5 (unknown origin) expressed in CHO cells assessed as Ca2+ activation; format: functional, cell-based
Sphingosine 1-phosphate receptor 5, sequence (Q9H228 whole entry): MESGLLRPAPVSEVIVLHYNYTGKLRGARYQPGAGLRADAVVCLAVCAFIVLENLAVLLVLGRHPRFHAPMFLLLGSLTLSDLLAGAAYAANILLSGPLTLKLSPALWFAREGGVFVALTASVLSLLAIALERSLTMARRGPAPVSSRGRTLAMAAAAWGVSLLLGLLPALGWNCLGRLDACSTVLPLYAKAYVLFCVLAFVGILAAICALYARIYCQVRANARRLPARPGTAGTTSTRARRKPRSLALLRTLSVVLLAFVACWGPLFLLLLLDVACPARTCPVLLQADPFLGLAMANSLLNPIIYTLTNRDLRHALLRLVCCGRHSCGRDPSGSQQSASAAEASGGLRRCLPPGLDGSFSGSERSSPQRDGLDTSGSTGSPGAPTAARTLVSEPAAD

Mus musculus [32] = test: Protection against MOG35-55/CFA-induced experimental autoimmune encephalomyelitis C57BL/6 mouse model assessed as reduction disease progression at 10 mg/kg, po administered once a day for 23 days; format: functional, organism-based; conditions: time 23.0 day
Mus musculus [33] = test: In vivo agonist activity at S1P1 in po dosed mouse assessed as reduction in peripheral lymphocyte count measured at 6 hrs; format: functional, organism-based; conditions: dose 1-10 mg/kg
[34] = Microsomal stability in rat liver microsomes assessed as parent compound remaining preincubated for 5 mins followed by NADPH addition measured after 60 mins by LC-MS/MS analysis; format: ADME, Microsome; conditions: time 65 min, read-out: Stability

SMILES | EC50 [2] | EC50 [3] | EC50 [4] | AUC(0-t) [5] | activity at 0.25 h, 10 µM (CYP2C9) | half-life [7] | Cmax [8] | Vd [10] | EC50 [11] | MRT inf [12] | activity at 0.25 h, 10 µM (CYP3A4) | Tmax [13] | EC50 [14] | clearance [15] | AUC(0-t) [16] | Activity (Mus musculus [17]) | bioavailability [18] | Activity [19] | half-life [21] | activity at 0.25 h, 10 µM (CYP2D6) | other results
CC(C)NCC(O)c1ccc(NS(C)(=O)=O)cc1 (stereo not given) [SOTALOL] | – | – | – | – | – | – | – | – | – | – | – | – | – | – | – | – | – | – | – | – | Activity [1]: Non-Toxic
CCCCCCCCCCCCC/C=C/[C@@H](O)[C@@H](N)COP(=O)(O)O | 22 nM | 92 nM | 9 nM | – | – | – | – | – | – | – | – | – | – | – | – | – | – | – | – | – | –
CC(C)Oc1ccc(COc2ccc3c(c2)CCN(S(=O)(=O)CCC(=O)O)C3)cc1C#N | – | – | – | 925 ng·h/mL | 75.4% | 2.4 h | 2290 ng/mL | 1.1 L/kg | 50 nM | 1 h | 87.5% | 0.5 h | 14 nM | 18.2 mL/min/kg | 4290 ng·h/mL | Active | 46.4% | 125% | 1.3 h | 91.9% | remaining at 0.5 h [6]: 100%; activity at 0.25 h, 10 µM (CYP1A2): 80.4%; remaining at 0.5 h [9]: 90.2%; remaining at 0.5 h [20]: 93.8%; MRT inf [22]: 1.9 h; Activity [23]: 100%
CC(C)Oc1ccc(COc2ccc3c(c2)CCCN(S(=O)(=O)CCC(=O)O)C3)cc1C#N | > 100000 nM | 17700 nM | 33000 nM | 593 ng·h/mL | 96.2% | 0.6 h | 1130 ng/mL | 0.6 L/kg | 16 nM | 0.4 h | 96.4% | 5 h | 21 nM | 29 mL/min/kg | 1960 ng·h/mL | Active | 33% | 81% | 1.8 h | 94.8% | Activity (Mus musculus [24]): Active; EC50 [25]: > 100000 nM; remaining at 1 h [26]: 67.1%; Activity [27]: Non-Toxic; Activity [28]: Non-Toxic; Activity (Mus musculus [29]): Active; Activity (Mus musculus [30]): Active; EC50 [31]: 110 nM; Activity (Mus musculus [32]): Active; Activity (Mus musculus [33]): Dose-Dependent Effect; remaining at 1 h [34]: 62.2%; MRT inf [22]: 2.5 h; Activity [23]: 113%

Reference: ChEMBL document CHEMBL5346978, “Exploration of Tetrahydroisoquinoline- and Benzo[c]azepine-Based Sphingosine 1-Phosphate Receptor 1 Agonists for the Treatment of Multiple Sclerosis” (J Med Chem, 2023)
